Results published in paper PMC8359193, “Summary of reference chemicals evaluated by the fish short‐term reproduction assay, OECD TG229, using Japanese Medaka, Oryzias latipes” (Journal of Applied Toxicology, 2021).

Assays:
[1] = system: Japanese medaka (Oryzias latipes); test: Fish short-term reproduction assay (FSTRA, OECD TG229), 21-day flow-through exposure; conditions: for Fertility rate (%) / Mortality (%) Female / Mortality (%) Male / Number of fertilized eggs / Number of total eggs / SSC Female / SSC Male / VTG (ng/mg of liver) Female / VTG (ng/mg of liver) Male: 21 days; for GSI Female / GSI Male / HSI Female / HSI Male / Length Female / Length Male / Weight Female / Weight Male: at completion of exposure; for effect on fecundity (number of total eggs), in words: within the test concentrations
Method in brief: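 Run to OECD TG229: mature NIES-R medaka pairs (3♂/3♀ per vessel, 4 vessels per treatment plus dilution water control) were dosed by continuous flow-through for 21 days. Test concentrations were spaced 2- to 5-fold. Daily spawned eggs were counted under the microscope for fertilized versus unfertilized.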

[2] = target: medaka ARβ (mARβ) (Oryzias latipes, UniProt D1MV73); test: Medaka ARβ reporter gene assay (RGA), agonist assay, HepG2 cells; type: cell-based, Japanese medaka (Oryzias latipes)
Sequence of medaka ARβ (mARβ) (D1MV73 entry or part of it): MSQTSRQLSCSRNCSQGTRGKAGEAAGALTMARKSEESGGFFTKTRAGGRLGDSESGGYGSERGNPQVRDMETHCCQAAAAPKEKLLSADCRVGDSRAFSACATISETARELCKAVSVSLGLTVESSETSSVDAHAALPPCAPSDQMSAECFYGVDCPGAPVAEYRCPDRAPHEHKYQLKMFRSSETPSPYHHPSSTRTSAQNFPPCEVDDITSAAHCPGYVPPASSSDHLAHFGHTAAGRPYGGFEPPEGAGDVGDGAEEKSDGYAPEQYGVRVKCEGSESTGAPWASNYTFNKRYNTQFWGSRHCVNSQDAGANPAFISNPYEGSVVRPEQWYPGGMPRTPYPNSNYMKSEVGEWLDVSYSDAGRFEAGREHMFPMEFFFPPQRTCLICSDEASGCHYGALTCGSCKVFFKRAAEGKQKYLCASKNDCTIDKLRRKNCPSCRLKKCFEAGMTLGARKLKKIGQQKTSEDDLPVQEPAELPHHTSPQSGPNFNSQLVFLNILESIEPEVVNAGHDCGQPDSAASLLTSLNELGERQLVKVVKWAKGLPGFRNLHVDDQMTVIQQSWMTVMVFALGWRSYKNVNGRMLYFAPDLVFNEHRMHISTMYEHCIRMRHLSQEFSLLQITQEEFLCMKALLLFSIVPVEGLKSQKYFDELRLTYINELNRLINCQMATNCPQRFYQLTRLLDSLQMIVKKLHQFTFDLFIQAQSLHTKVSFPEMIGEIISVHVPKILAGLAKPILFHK
Description: To support interpretation of the biological effects observed in the FSTRA studies, in vitro RGAs using medaka Esr1 (mEsr1) and medaka ARβ (mARβ) were performed for the 16 test chemicals.
For the assays, human liver cancer cell line, HepG2, was used as the host cells, and mARβ/pcDNA3.1, MMTV‐Luc, and pRL‐TK‐Rlu were used as mARβ expression vector, reporter vector, and internal control vector, respectively.
Effect concentrations, that is, EC50 (a half maximal effective concentration) in the agonist assay and IC50 (a half maximal inhibitory concentration) in the antagonist assay, were estimated by nonlinear curve fitting (e.g., three parameters logistic regression curve) using GraphPad Prism (GraphPad Software Inc., La Jolla, CA, USA).

[3] = 21-day exposure, measured conc.

## CC(=O)N1CCN(c2ccc(OCC3COC(Cn4ccnc4)(c4ccc(Cl)cc4Cl)O3)cc2)CC1 (stereo not shown) [KCZ, Ketoconazole]
[1]; 21-day exposure
  effect on male SSC, in words: statistical significance
  effect on fecundity (number of total eggs), in words: significant difference from the control
[1]; hepatic VTG, 21-day exposure, measured conc.
  LOEC for decrease of VTG in females: 233 µg/L
[1]; measured conc. 105 μg/L
  Fertility rate (%): 91%
  Mortality (%) Female: 0%
  Mortality (%) Male: 0%
  Number of fertilized eggs: 22
  Number of total eggs: 24 ± 1.1 /female/day
  SSC Female: 0 ± 0
  SSC Male: 82 ± 10
  VTG (ng/mg of liver) Female: 618 ± 81 ng/mg of liver
  VTG (ng/mg of liver) Male: 1.4 ± 0.3 ng/mg of liver
  GSI Female: 11.6%
  GSI Male: 1.08%
  HSI Female: 4.2%
  HSI Male: 1.9%
  Length Female: 33.2 mm
  Length Male: 32.7 mm
  Weight Female: 387 mg
  Weight Male: 381 mg
[1]; measured conc. 233 μg/L
  Fertility rate (%): 89%
  Mortality (%) Female: 0%
  Mortality (%) Male: 0%
  Number of fertilized eggs: 18
  Number of total eggs: 20 ± 1.6 /female/day
  SSC Female: 0 ± 0
  SSC Male: 116 ± 25
  VTG (ng/mg of liver) Female: 542 ± 353 ng/mg of liver
  VTG (ng/mg of liver) Male: 1.3 ± 0.1 ng/mg of liver
  GSI Female: 12.0%
  GSI Male: 1.26%
  HSI Female: 8.8%
  HSI Male: 3.8%
  Length Female: 33.3 mm
  Length Male: 33.3 mm
  Weight Female: 419 mg
  Weight Male: 416 mg
[1]; measured conc. 405 μg/L
  Fertility rate (%): 81%
  Mortality (%) Female: 8%
  Mortality (%) Male: 0%
  Number of fertilized eggs: 9.0
  Number of total eggs: 11 ± 4.4 /female/day
  SSC Female: 0 ± 0
  SSC Male: 91 ± 13
  VTG (ng/mg of liver) Female: 190 ± 123 ng/mg of liver
  VTG (ng/mg of liver) Male: 1.1 ± 0.1 ng/mg of liver
  GSI Female: 13.6%
  GSI Male: 0.98%
  HSI Female: 12.1%
  HSI Male: 3.5%
  Length Female: 32.6 mm
  Length Male: 32.4 mm
  Weight Female: 410 mg
  Weight Male: 404 mg
[1]; measured conc. 795 μg/L
  Fertility rate (%): 76%
  Mortality (%) Female: 42%
  Mortality (%) Male: 58%
  Number of fertilized eggs: 3.5
  Number of total eggs: 4.7 ± 0.9 /female/day
  SSC Female: 0 ± 0
  SSC Male: 80 ± 22
  VTG (ng/mg of liver) Female: 56 ± 95 ng/mg of liver
  VTG (ng/mg of liver) Male: 1.1 ± 0.1 ng/mg of liver
  GSI Female: 11.0%
  GSI Male: 1.35%
  HSI Female: 11.8%
  HSI Male: 5.1%
  Length Female: 31.7 mm
  Length Male: 30.2 mm
  Weight Female: 376 mg
  Weight Male: 282 mg

## C#C[C@]1(O)CC[C@H]2[C@@H]3CCC4=CC(=O)CC[C@@H]4[C@H]3CC[C@@]21CC [LNG, Levonorgestrel]
[1]; [3]
  LOEC on female SSC (papillary process formation on anal fin): 42.2 ng/L
[1]; highest concentration, 21-day exposure
  concentration at which female hepatic VTG was significantly decreased: 226 ng/L
[1]; male, measured conc. 7.3 ng/L
  GSI Male: 0.82%
  HSI Male: 2.0%
  Length Male: 38.4 mm
  Weight Male: 610 mg
[1]; male, measured conc. 42.2 ng/L
  GSI Male: 0.89%
  HSI Male: 2.2%
  Length Male: 38.8 mm
  Weight Male: 691 mg
[1]; male, measured conc. 226 ng/L
  GSI Male: 0.76%
  HSI Male: 2.1%
  Length Male: 38.3 mm
  Weight Male: 610 mg
[1]; measured conc. 7.3 ng/L
  Fertility rate (%): 87%
  Mortality (%) Female: 0%
  Mortality (%) Male: 0%
  Number of fertilized eggs: 25
  Number of total eggs: 29 ± 5.8 /female/day
  SSC Female: 0 ± 0
  SSC Male: 112 ± 4.5
  VTG (ng/mg of liver) Female: 2,370 ± 207 ng/mg of liver
  VTG (ng/mg of liver) Male: 2.8 ± 4.1 ng/mg of liver
[1]; measured conc. 42.2 ng/L
  Fertility rate (%): 82%
  Mortality (%) Female: 8%
  Mortality (%) Male: 0%
  Number of fertilized eggs: 17
  Number of total eggs: 21 ± 3.9 /female/day
  SSC Female: 44 ± 10
  SSC Male: 121 ± 8.6
  VTG (ng/mg of liver) Female: 2,350 ± 673 ng/mg of liver
  VTG (ng/mg of liver) Male: 0.8 ± 0.3 ng/mg of liver
[1]; measured conc. 226 ng/L
  Fertility rate (%): 82%
  Mortality (%) Female: 0%
  Mortality (%) Male: 0%
  Number of fertilized eggs: 5.1
  Number of total eggs: 5.9 ± 5.2 /female/day
  SSC Female: 83 ± 5.4
  SSC Male: 116 ± 10
  VTG (ng/mg of liver) Female: 1,120 ± 561 ng/mg of liver
  VTG (ng/mg of liver) Male: 0.6 ± 0.1 ng/mg of liver
[1]; 21-day exposure
  effect on fecundity (number of total eggs), in words: significant difference from the control
[2]
  mARβ agonist activity (in words): potent AR agonists

## C[C@]12C=CC3=C4CCC(=O)C=C4CC[C@H]3[C@@H]1CC[C@@H]2O [TRB, 17β‐Trenbolone]
[1]; [3]
  LOEC on female SSC (papillary process formation on anal fin): 26.8 ng/L
[1]; measured conc. 8.03 ng/L
  Fertility rate (%): 95%
  Mortality (%) Female: 0%
  Mortality (%) Male: 0%
  Number of fertilized eggs: 26
  Number of total eggs: 27 ± 3.5 /female/day
  SSC Female: 0 ± 0
  SSC Male: 86 ± 3.9
  VTG (ng/mg of liver) Female: 736 ± 147 ng/mg of liver
  VTG (ng/mg of liver) Male: 3.7 ± 3.2 ng/mg of liver
  GSI Female: 9.7%
  GSI Male: 1.04%
  HSI Female: 5.4%
  HSI Male: 1.8%
  Length Female: 36.4 mm
  Length Male: 36.7 mm
  Weight Female: 573 mg
  Weight Male: 502 mg
[1]; measured conc. 26.8 ng/L
  Fertility rate (%): 93%
  Mortality (%) Female: 0%
  Mortality (%) Male: 0%
  Number of fertilized eggs: 22
  Number of total eggs: 24 ± 2.6 /female/day
  SSC Female: 6.6 ± 6.1
  SSC Male: 101 ± 17
  VTG (ng/mg of liver) Female: 696 ± 211 ng/mg of liver
  VTG (ng/mg of liver) Male: 6.5 ± 3.8 ng/mg of liver
  GSI Female: 11.3%
  GSI Male: 1.06%
  HSI Female: 5.5%
  HSI Male: 2.1%
  Length Female: 35.6 mm
  Length Male: 37.3 mm
  Weight Female: 515 mg
  Weight Male: 500 mg
[1]; measured conc. 84.6 ng/L
  Fertility rate (%): 90%
  Mortality (%) Female: 0%
  Mortality (%) Male: 0%
  Number of fertilized eggs: 9.1
  Number of total eggs: 10 ± 2.4 /female/day
  SSC Female: 48 ± 6.7
  SSC Male: 104 ± 8.1
  VTG (ng/mg of liver) Female: 658 ± 102 ng/mg of liver
  VTG (ng/mg of liver) Male: 4.9 ± 4.3 ng/mg of liver
  GSI Female: 16.1%
  GSI Male: 1.11%
  HSI Female: 3.7%
  HSI Male: 2.1%
  Length Female: 36.1 mm
  Length Male: 37.7 mm
  Weight Female: 625 mg
  Weight Male: 524 mg
[1]; measured conc. 291 ng/L
  Fertility rate (%): 74%
  Mortality (%) Female: 0%
  Mortality (%) Male: 0%
  Number of fertilized eggs: 0.9
  Number of total eggs: 1.2 ± 0.5 /female/day
  SSC Female: 76 ± 3.9
  SSC Male: 103 ± 8.4
  VTG (ng/mg of liver) Female: 641 ± 200 ng/mg of liver
  VTG (ng/mg of liver) Male: 4.5 ± 2.1 ng/mg of liver
  GSI Female: 18.8%
  GSI Male: 1.10%
  HSI Female: 3.4%
  HSI Male: 1.8%
  Length Female: 37.3 mm
  Length Male: 37.0 mm
  Weight Female: 691 mg
  Weight Male: 504 mg
[1]; 21-day exposure
  effect on fecundity (number of total eggs), in words: significantly reduced
